Laboratory results from patent US6323193A, “Bioavailable oral dosage form of cefuroxime axetil” (Ranbaxy Laboratories Limited, priority 1999, dated 2001).
Like-named read-outs stand apart in the source and are kept apart here.

Tests used:
[1] = oral administration, cited from earlier work
[2] = system: gram-positive and gram-negative microorganisms; settings: cited from earlier work
[3] = Behaviour of amorphous cefuroxime axetil in contact with water (conversion to crystalline form, gel formation); assay type: physicochemical; settings: formulation with sodium salt of citric acid
[4] = cited from earlier work

Question: For CO/N=C(\C(=O)N[C@@H]1C(=O)N2C(C(=O)OC(C)OC(C)=O)=C(COC(N)=O)CS[C@H]12)c1ccco1 (stereo partly shown) [Crystalline cefuroxime axetil], which bioavailability [1] is on record?
Answer: does not exhibit adequate bioavailability

Question: Which spectrum of activity [2] does the source give for CO/N=C(\C(=O)N[C@@H]1C(=O)N2C(C(=O)OC(C)OC(C)=O)=C(COC(N)=O)CS[C@H]12)c1ccco1 (stereo partly shown) [Cefuroxime axetil, 1-acetoxyethyl ester of cefuroxime] here?
Answer: broad spectrum of activity

Question: For CO/N=C(\C(=O)N[C@@H]1C(=O)N2C(C(=O)OC(C)OC(C)=O)=C(COC(N)=O)CS[C@H]12)c1ccco1 (stereo partly shown) [amorphous cefuroxime axetil], which “tendency to form a gel on addition of a sodium salt of citric acid” value [3] is on record?
Answer: inhibits the tendency of amorphous cefuroxime axetil to form a gel

Question: And the bioavailability ([1]; listed as amorphous form of cefuroxime axetil)?
Answer: high bioavailability

Question: And the bioavailability ([1]; listed as highly pure amorphous cefuroxime axetil)?
Answer: higher bioavailability than crystalline cefuroxime axetil

Question: What about the gel formation ([4]; contact with water) of the same compound?
Answer: forms a gel which prolongs the disintegration and retards the dissolution

Question: What about the “conversion to the crystalline form” value ([4]; upon contact with water) of the same compound?
Answer: gets converted to the crystalline form
